14 compounds from ChEMBL document CHEMBL3272236, “Synthesis and evaluation of 1,omega-diaryl-l,omega-alkanediamines related to the fibrinolytic bis(tetrahydroisoquinolines) and bis(benzylamines)” (1976) can be followed below.

The subject of one assay is Rattus norvegicus. Kind of assay: Fibrinolytic activity in ip dosed rat assessed as blood clot lysis for 4 hrs. The assay is classed as functional.
Settings: not given
As a reminder, the ED50 is the dose that gives a 50% effect, or the effect in half of the subjects. As for `COc1ccc(C(N)CCCCCCCC2NCCc3cc(OC)c(OC)cc32)cc1OC.Cl` (racemic; 31b), the ED50 is 0.5 mg/kg.

Still in this assay, the particulars now being: Rattus norvegicus, Blood clot, ip, 4 h; read-out: ED50.
With `COc1cc2c(cc1OC)C(CCCCC1NCCc3cc(OC)c(OC)cc31)NCC2.Cl` (centres undefined), the ED50 stood at 0.3 mg/kg.

For `COc1ccc2c(c1)CCNC2CCCCC1NCCc2cc(OC)ccc21.Cl` (centres undefined), the ED50 is 2 mg/kg.

On to `COc1ccc2c(c1)CCNC2CCCCCCCC1NCCc2cc(OC)ccc21.Cl` (centres undefined), for which the 50% effective dose (ED50) was 6 mg/kg.

`COc1ccc(C(N)CCCCC(N)c2ccc(OC)c(OC)c2)cc1OC.Cl` (centres undefined): the 50% effective dose (ED50) turned out to be 0.4 mg/kg.

On to `COc1cc2c(cc1OC)C(CCCCC1NCCCc3cc(OC)c(OC)cc31)NCCC2.Cl` (centres undefined), for which the ED50 was 0.7 mg/kg.

As to `COc1ccc2[nH]c3c(c2c1)CCNC3CCCCC1NCCc2c1[nH]c1ccc(OC)cc21.Cl` (centres undefined), the ED50 came to 6 mg/kg.

Consider `COc1ccc2[nH]c3c(c2c1)CCNC3CCCCCCCC1NCCc2c1[nH]c1ccc(OC)cc21.Cl` (centres undefined), for which the median effective dose (ED50) came to 2 mg/kg.

For the compound `COc1ccc(C(N)CCCCC2NCCc3cc(OC)c(OC)cc32)cc1OC.Cl` (centres undefined), the ED50 came out at 0.9 mg/kg.

Regarding `COc1ccc(C(N)CCCCCCC2NCCc3cc(OC)c(OC)cc32)cc1OC.Cl` (centres undefined), the ED50 was found to be 1 mg/kg.

For the compound `COc1ccc(CC(N)CCCCC(N)Cc2ccc(OC)c(OC)c2)cc1OC.Cl` (centres undefined), the 50% effective dose (ED50) turned out to be 15 mg/kg.

Take `COc1cc(CCCCCCc2cc(OC)c(OC)cc2C(C)N)c(C(C)N)cc1OC.Cl` (centres undefined): the median effective dose (ED50) turned out to be 4 mg/kg.

Take `COc1ccc(C(N)CCCCCCCC2NCCc3cc(OC)c(OC)cc32)cc1OC.Cl` (racemic; 31a): the median effective dose (ED50) amounted to 0.7 mg/kg.

As for `NCCc1c[nH]c2ccc(O)cc12` [SEROTONIN], the median effective dose (ED50) stood at 1 mg/kg.
